Ki data for 32 compounds are collected here from ChEMBL document CHEMBL1129873, “PYRIDONE-BASED PEPTIDOMIMETIC INHIBITORS OF INTERLEUKIN-1-CONVERTING ENZYME (ICE)” (Bioorg Med Chem Lett, 1997).

The term Ki denotes a dissociation constant, usually derived from enzyme kinetics or from competition with a known ligand.

This test concerns the target T1, Caspase-1 (Homo sapiens, UniProt P29466).
T1 sequence (P29466 whole entry): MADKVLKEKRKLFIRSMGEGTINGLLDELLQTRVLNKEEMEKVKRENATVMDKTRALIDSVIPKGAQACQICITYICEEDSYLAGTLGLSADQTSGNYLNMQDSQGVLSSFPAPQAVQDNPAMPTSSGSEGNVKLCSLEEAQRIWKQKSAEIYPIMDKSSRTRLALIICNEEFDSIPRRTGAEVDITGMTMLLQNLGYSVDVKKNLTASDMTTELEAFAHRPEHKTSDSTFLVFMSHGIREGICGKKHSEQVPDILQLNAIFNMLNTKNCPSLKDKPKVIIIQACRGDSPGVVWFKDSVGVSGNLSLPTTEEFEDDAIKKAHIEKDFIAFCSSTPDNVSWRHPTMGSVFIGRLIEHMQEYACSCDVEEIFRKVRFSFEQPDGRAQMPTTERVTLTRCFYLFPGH
The experiment in a line: Reversible inhibition of recombinant human IL-1 beta converting enzyme.
For the compound `CC(=O)N[C@@H](Cc1ccc(O)cc1)C(=O)N[C@H](C(=O)N[C@@H](C)C(=O)N[C@@H](CC(=O)O)C(=O)COc1ccccc1)C(C)C`, the inhibition constant (Ki) came out at 1.1 nM. With `O=C(O)C[C@H](NC(=O)Cn1c(Cc2ccccc2)ccc(NC(=O)c2cccc3ccccc23)c1=O)C(=O)COc1ccccc1` the figure was 10 nM; with `CCC(C(=O)N[C@@H](CC(=O)O)C(=O)COc1ccccc1)n1cccc(NC(=O)c2ccc3ccccc3c2)c1=O` (some centres not stated), 1.4 nM; with `O=C(O)C[C@H](NC(=O)C(c1ccccc1)n1cccc(NC(=O)c2ccc3ccccc3c2)c1=O)C(=O)COc1ccccc1` (some centres not stated), 1.3 nM.

Regarding `CCCC(C(=O)N[C@@H](CC(=O)O)C(=O)COc1ccccc1)n1c(-c2ccccc2)ccc(NC(=O)c2cccc3ccccc23)c1=O` (some centres not stated), the inhibitory constant (Ki) amounted to 7200 nM. With `COCC(C(=O)N[C@@H](CC(=O)O)C(=O)COc1ccccc1)n1cccc(NC(=O)c2ccc3ccccc3c2)c1=O` (some centres not stated) the figure was 7.1 nM. With `CCc1ccc(NC(=O)c2cccc3ccccc23)c(=O)n1CC(=O)N[C@@H](CC(=O)O)C(=O)COc1ccccc1` the figure was 40 nM; with `O=C(O)C[C@H](NC(=O)C(c1ccccn1)n1cccc(NC(=O)c2ccc3ccccc3c2)c1=O)C(=O)COc1ccccc1` (some centres not stated), 2 nM. Regarding `Cc1ccc(NC(=O)OCc2ccccc2)c(=O)n1CC(=O)N[C@@H](CC(=O)O)C(=O)COc1ccccc1`, the Ki is 590 nM.

For `CCC(C(=O)N[C@@H](CC(=O)O)C(=O)COc1ccccc1)n1cccc(NC(=O)c2cccc3ccccc23)c1=O` (some centres not stated), the inhibitory constant (Ki) came to 2.2 nM.

For `CC(C)[C@H](NC(=O)c1ccc2ccccc2c1)C(=O)N[C@@H](C)C(=O)NC(CC(=O)O)C(=O)COc1ccccc1` (some centres not stated), the Ki was determined as 0.15 nM. For `O=C(O)C[C@H](NC(=O)C(c1ccccc1)n1cccc(NC(=O)c2cccc3ccccc23)c1=O)C(=O)COc1ccccc1` (some centres not stated), the Ki was 1.8 nM. The result for `CCCc1ccc(NC(=O)c2cccc3ccccc23)c(=O)n1CC(=O)N[C@@H](CC(=O)O)C(=O)COc1ccccc1` reads 68 nM; that for `CC(C)C(C(=O)N[C@@H](CC(=O)O)C(=O)COc1ccccc1)n1cccc(NC(=O)c2cccc3ccccc23)c1=O` (some centres not stated), 21 nM. With `Cc1ccc(NC(=O)c2ccccc2)c(=O)n1CC(=O)N[C@@H](CC(=O)O)C(=O)COc1ccccc1` the figure was 530 nM; with `CCCCc1ccc(NC(=O)c2cccc3ccccc23)c(=O)n1CC(=O)N[C@@H](CC(=O)O)C(=O)COc1ccccc1`, 16 nM. The result for `O=C(O)C[C@H](NC(=O)Cn1c(-c2ccccc2)ncc(NC(=O)c2cccc3ccccc23)c1=O)C(=O)COc1ccccc1` reads 66 nM; that for `CCCCc1ncc(NC(=O)c2cccc3ccccc23)c(=O)n1CC(=O)N[C@@H](CC(=O)O)C(=O)COc1ccccc1`, 46 nM.

Turning to `CCCCC(C(=O)N[C@@H](CC(=O)O)C(=O)COc1ccccc1)n1cccc(NC(=O)c2cccc3ccccc23)c1=O` (some centres not stated), the Ki turned out to be 5.3 nM. With `O=C(O)C[C@H](NC(=O)Cn1cccc(NC(=O)c2cccc3ccccc23)c1=O)C(=O)COc1ccccc1` the figure was 39 nM. With `Cc1ccc(NC(=O)c2cccc3ccccc23)c(=O)n1CC(=O)N[C@@H](CC(=O)O)C(=O)COc1ccccc1` the figure was 95 nM; with `Cc1ccc(NC(=O)c2ccc3ccccc3c2)c(=O)n1CC(=O)N[C@@H](CC(=O)O)C(=O)COc1ccccc1`, 160 nM; with `CCCC(C(=O)N[C@@H](CC(=O)O)C(=O)COc1ccccc1)n1cccc(NC(=O)c2cccc3ccccc23)c1=O` (some centres not stated), 1.8 nM. With `CC(C(=O)N[C@@H](CC(=O)O)C(=O)COc1ccccc1)n1cccc(NC(=O)c2ccc3ccccc3c2)c1=O` (some centres not stated), the Ki was found to be 14 nM. With `CCCC(C(=O)N[C@@H](CC(=O)O)C(=O)COc1ccccc1)n1c(C)ccc(NC(=O)c2ccc3ccccc3c2)c1=O` (some centres not stated) the figure was 2200 nM; with `CC(C)[C@H](NC(=O)c1ccc2ccccc2c1)C(=O)N1CCCC[C@H]1C(=O)NC(CC(=O)O)C(=O)COc1ccccc1` (some centres not stated), 0.15 nM; with `CCCCCCc1ccc(NC(=O)c2cccc3ccccc23)c(=O)n1CC(=O)N[C@@H](CC(=O)O)C(=O)COc1ccccc1`, 40 nM.

For the compound `C=CCC(C(=O)N[C@@H](CC(=O)O)C(=O)COc1ccccc1)n1cccc(NC(=O)c2ccc3ccccc3c2)c1=O` (some centres not stated), the inhibition constant Ki worked out at 1.5 nM. With `CC(C(=O)N[C@@H](CC(=O)O)C(=O)COc1ccccc1)n1cccc(NC(=O)c2cccc3ccccc23)c1=O` (some centres not stated) the figure was 7 nM. In the case of `O=C(O)C[C@H](NC(=O)Cn1cccc(NC(=O)c2ccc3ccccc3c2)c1=O)C(=O)COc1ccccc1`, the Ki is 45 nM. With `O=C(O)C[C@H](NC(=O)Cn1c(-c2ccccc2)ccc(NC(=O)c2cccc3ccccc23)c1=O)C(=O)COc1ccccc1` the figure was 25 nM; with `CC(C)[C@H](NC(=O)c1ccc2ccccc2c1)C(=O)N1CCC[C@H]1C(=O)NC(CC(=O)O)C(=O)COc1ccccc1` (some centres not stated), 0.2 nM.
